Here are results for six compounds from ChEMBL document CHEMBL6134920, “Novel Heterocyclic Pyrimidine Derivatives as GSK3α Inhibitors” (ACS Med Chem Lett, 2025).

The assay is described as follows: Inhibition of Nanoluc-GSK2alpha (unknown origin) expressed in HEK293 cells measured after overnight incubation by NanoBRET- cellular assay. The settings on record: Homo sapiens. For orientation: Bioluminescence resonance energy transfer reports proximity on the nanometre scale.
`CNC(COC)c1cncc(NC(=O)c2c(N)ncn(-c3c(Cl)cc(COC)cc3Cl)c2=O)c1` (stereo unspecified) showed a 50% inhibitory concentration (IC50) of 1.9 nM. For `Nc1ncn(-c2c(Cl)cc(C(F)CF)cc2Cl)c(=O)c1C(=O)Nc1cncc([C@H]2CCCCN2)c1` (stereo partly specified) the value was 2 nM; for `CCNCc1cncc(NC(=O)c2c(N)ncn(-c3c(Cl)cc(OCC)cc3Cl)c2=O)c1`, 4.8 nM; for `COCC(N)c1cncc(NC(=O)c2c(N)ncn(-c3c(Cl)cc(C(F)F)cc3Cl)c2=O)c1` (stereo unspecified), 2.8 nM. The compound `COCc1cc(Cl)c(-n2cnc(N)c(C(=O)Nc3cncc(C(N)COC)c3)c2=O)c(Cl)c1` (stereo unspecified) returned an IC50 of 2.4 nM. For `COCC(N)c1cncc(NC(=O)c2c(N)ncn(-c3c(Cl)cc(OC4CC4)cc3Cl)c2=O)c1` (stereo unspecified), the IC50 is 2.4 nM.

One may read the IC50 as the concentration at which inhibition is half-maximal. A high value points to a need for much substance.
